According to ChEMBL document CHEMBL3769377, “A synthesis, in silico, in vitro and in vivo study of thieno[2,3-b]pyridine anticancer analogues” (Medchemcomm, 2015):
pIC50: −log10 of the molar value.

Key:
[1] = target: Mitogen-activated protein kinase 10 (Homo sapiens) (UniProt P53779); assay: Inhibition of human recombinant JNK3 assessed as residual activity at 10 uM after 1 hr by qPCR analysis relative to control
[2] = target: Receptor tyrosine-protein kinase erbB-2 (Homo sapiens) (UniProt P04626); assay: Inhibition of human recombinant ERBB2 assessed as residual activity at 10 uM after 1 hr by qPCR analysis relative to control
[3] = target: Serine/threonine-protein kinase pim-1 (Homo sapiens) (UniProt P11309); assay: Inhibition of human recombinant PIM1 assessed as residual activity at 10 uM after 1 hr by qPCR analysis relative to control
Sequence of Serine/threonine-protein kinase pim-1 (Homo sapiens) (P11309 whole entry, looked up): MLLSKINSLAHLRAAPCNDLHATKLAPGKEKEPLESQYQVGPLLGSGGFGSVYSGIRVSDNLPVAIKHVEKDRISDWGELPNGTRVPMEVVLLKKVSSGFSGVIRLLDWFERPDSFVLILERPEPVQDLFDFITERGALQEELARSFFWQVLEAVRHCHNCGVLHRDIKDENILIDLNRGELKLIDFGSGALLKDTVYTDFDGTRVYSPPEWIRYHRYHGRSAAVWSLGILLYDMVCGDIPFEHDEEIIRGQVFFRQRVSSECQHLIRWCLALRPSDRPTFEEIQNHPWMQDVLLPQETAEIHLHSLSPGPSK

[4] = target: MAP kinase-interacting serine/threonine-protein kinase 1 (Homo sapiens) (UniProt Q9BUB5); assay: Inhibition of human recombinant MKNK1 assessed as residual activity at 10 uM after 1 hr by qPCR analysis relative to control
[5] = target: Focal adhesion kinase 1 (Homo sapiens) (UniProt Q05397); assay: Inhibition of human recombinant FAK assessed as residual activity at 10 uM after 1 hr by qPCR analysis relative to control
[6] = target: Mitogen-activated protein kinase 8 (Homo sapiens) (UniProt P45983); assay: Inhibition of human recombinant JNK1 assessed as residual activity at 10 uM after 1 hr by qPCR analysis relative to control
[7] = target: RAC-beta serine/threonine-protein kinase (Homo sapiens) (UniProt P31751); assay: Inhibition of human recombinant AKT2 assessed as residual activity at 10 uM after 1 hr by qPCR analysis relative to control
[8] = target: Cyclin-dependent kinase 9 (Homo sapiens) (UniProt P50750); assay: Inhibition of human recombinant CDK9 assessed as residual activity at 10 uM after 1 hr by qPCR analysis relative to control
[9] = target: Tyrosyl-DNA phosphodiesterase 1 (Homo sapiens, UniProt Q9NUW8); assay: Inhibition of recombinant human N-terminal His-tagged TDP1 (1824 bp) expressed in Escherichia coli BL21(DE3) cells using 5'-(5,6 FAM-AAC GTC AGG GTC TTC C-BHQ1)-3' as substrate measured every 1 min by RT-PCR method
[10] = target: Mitogen-activated protein kinase 9 (Homo sapiens) (UniProt P45984); assay: Inhibition of human recombinant JNK2 assessed as residual activity at 10 uM after 1 hr by qPCR analysis relative to control
[11] = target: MAP kinase-activated protein kinase 2 (Homo sapiens) (UniProt P49137); assay: Inhibition of human recombinant MAPKAPK2 assessed as residual activity at 10 uM after 1 hr by qPCR analysis relative to control
Sequence of MAP kinase-activated protein kinase 2 (Homo sapiens) (P49137 whole entry, looked up): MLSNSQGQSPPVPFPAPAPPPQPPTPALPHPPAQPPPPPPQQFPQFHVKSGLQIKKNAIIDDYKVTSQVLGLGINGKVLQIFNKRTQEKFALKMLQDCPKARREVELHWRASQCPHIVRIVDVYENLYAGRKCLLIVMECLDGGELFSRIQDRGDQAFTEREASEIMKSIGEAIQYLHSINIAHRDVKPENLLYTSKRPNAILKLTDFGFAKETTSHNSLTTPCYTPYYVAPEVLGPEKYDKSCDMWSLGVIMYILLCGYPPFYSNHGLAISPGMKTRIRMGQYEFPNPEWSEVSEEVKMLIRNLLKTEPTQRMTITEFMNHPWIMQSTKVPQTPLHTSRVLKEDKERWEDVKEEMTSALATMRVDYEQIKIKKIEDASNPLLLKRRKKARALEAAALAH

[12] = target: Mitogen-activated protein kinase 3 (Homo sapiens) (UniProt P27361); assay: Inhibition of human recombinant ERK1 assessed as residual activity at 10 uM after 1 hr by qPCR analysis relative to control
[13] = tested on: Serine/threonine-protein kinase B-raf (Homo sapiens), P15056 [V600E]; assay: Inhibition of human recombinant BRAF V600E mutant assessed as residual activity at 10 uM after 1 hr by qPCR analysis relative to control
[14] = tested on: Epidermal growth factor receptor (Homo sapiens), P00533 [L858R]; assay: Inhibition of human recombinant EGFR L858R mutant assessed as residual activity at 10 uM after 1 hr by qPCR analysis relative to control; type: protein assay
[15] = target: Proto-oncogene tyrosine-protein kinase receptor Ret (Homo sapiens) (UniProt P07949); assay: Inhibition of human recombinant RET assessed as residual activity at 10 uM after 1 hr by qPCR analysis relative to control
[16] = target: Serine/threonine-protein kinase pim-3 (Homo sapiens) (UniProt Q86V86); assay: Inhibition of human recombinant PIM3 assessed as residual activity at 10 uM after 1 hr by qPCR analysis relative to control
[17] = target: Dual specificity tyrosine-phosphorylation-regulated kinase 1B (Homo sapiens) (UniProt Q9Y463); assay: Inhibition of human recombinant DYRK1B assessed as residual activity at 10 uM after 1 hr by qPCR analysis relative to control
Sequence of Dual specificity tyrosine-phosphorylation-regulated kinase 1B (Homo sapiens) (Q9Y463 whole entry, looked up): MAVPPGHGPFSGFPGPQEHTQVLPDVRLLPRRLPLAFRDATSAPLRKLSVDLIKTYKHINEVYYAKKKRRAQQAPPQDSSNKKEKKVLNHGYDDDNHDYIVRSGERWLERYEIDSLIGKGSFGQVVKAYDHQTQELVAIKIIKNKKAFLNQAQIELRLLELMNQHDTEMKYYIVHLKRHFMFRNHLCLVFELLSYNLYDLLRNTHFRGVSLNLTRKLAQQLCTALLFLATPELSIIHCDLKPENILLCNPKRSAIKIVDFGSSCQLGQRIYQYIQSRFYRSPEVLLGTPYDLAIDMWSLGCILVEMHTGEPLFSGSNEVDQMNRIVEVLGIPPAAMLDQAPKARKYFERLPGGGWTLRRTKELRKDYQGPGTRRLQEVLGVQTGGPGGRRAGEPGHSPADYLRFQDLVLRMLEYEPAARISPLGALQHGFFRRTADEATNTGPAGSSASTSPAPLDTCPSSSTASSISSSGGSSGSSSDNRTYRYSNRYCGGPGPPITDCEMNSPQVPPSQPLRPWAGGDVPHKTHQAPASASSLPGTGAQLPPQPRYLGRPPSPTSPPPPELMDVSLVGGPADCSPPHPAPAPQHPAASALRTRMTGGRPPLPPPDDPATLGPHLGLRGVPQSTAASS

[18] = target: Tyrosine-protein kinase BTK (Homo sapiens) (UniProt Q06187); assay: Inhibition of human recombinant BTK assessed as residual activity at 10 uM after 1 hr by qPCR analysis relative to control
[19] = target: Mitogen-activated protein kinase 14 (Homo sapiens) (UniProt Q16539); assay: Inhibition of human recombinant p38alpha assessed as residual activity at 10 uM after 1 hr by qPCR analysis relative to control
Sequence of Mitogen-activated protein kinase 14 (Homo sapiens) (Q16539 whole entry): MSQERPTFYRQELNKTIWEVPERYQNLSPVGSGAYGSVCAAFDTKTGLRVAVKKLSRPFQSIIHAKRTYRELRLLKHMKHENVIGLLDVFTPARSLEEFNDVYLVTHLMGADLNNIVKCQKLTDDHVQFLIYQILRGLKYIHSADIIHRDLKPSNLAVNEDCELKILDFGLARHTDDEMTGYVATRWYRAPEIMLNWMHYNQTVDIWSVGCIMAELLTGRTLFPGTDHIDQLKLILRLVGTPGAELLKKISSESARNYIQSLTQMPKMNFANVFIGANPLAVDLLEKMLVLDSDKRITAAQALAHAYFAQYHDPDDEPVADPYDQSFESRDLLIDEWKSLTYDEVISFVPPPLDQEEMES

[20] = target: Hepatocyte growth factor receptor (Homo sapiens) (UniProt P08581); assay: Inhibition of human recombinant MET assessed as residual activity at 10 uM after 1 hr by qPCR analysis relative to control
Sequence of Hepatocyte growth factor receptor (Homo sapiens) (P08581 whole entry): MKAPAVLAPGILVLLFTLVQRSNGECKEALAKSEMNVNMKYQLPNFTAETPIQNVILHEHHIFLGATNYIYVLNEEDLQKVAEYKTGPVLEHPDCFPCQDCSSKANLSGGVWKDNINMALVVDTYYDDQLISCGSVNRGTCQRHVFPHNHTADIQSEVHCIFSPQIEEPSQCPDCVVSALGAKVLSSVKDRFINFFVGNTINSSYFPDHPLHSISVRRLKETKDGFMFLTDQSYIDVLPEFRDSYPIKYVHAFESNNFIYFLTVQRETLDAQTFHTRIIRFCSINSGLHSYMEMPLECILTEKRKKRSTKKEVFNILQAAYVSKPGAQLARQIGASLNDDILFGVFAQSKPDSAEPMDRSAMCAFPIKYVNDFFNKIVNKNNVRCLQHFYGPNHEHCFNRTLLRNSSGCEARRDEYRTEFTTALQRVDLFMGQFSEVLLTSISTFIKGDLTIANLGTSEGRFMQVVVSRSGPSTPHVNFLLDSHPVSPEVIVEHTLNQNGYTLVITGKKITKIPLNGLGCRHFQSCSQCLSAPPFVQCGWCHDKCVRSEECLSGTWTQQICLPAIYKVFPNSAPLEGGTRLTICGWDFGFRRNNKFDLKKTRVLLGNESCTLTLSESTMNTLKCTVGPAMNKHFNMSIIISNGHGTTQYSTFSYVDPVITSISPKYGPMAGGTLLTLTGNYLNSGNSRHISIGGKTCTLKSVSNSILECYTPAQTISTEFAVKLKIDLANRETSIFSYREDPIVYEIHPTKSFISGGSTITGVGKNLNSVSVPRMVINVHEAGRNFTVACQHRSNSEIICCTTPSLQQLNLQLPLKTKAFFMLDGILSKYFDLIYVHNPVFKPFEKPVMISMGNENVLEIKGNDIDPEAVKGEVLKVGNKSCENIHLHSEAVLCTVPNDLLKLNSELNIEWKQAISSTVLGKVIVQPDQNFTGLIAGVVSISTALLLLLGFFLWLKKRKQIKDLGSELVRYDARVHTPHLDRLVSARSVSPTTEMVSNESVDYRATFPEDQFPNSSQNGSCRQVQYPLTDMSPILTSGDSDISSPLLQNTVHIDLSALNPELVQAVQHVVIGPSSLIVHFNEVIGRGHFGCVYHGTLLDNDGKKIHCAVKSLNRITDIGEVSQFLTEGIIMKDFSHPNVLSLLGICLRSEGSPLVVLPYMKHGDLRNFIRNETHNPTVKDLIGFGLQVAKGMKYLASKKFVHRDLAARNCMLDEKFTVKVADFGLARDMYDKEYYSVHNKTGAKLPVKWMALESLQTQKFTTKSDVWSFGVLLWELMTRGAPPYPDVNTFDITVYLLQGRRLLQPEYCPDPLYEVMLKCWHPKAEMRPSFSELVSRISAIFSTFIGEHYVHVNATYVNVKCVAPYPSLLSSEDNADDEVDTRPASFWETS

[21] = target: Tyrosine-protein kinase ABL1 (Homo sapiens) (UniProt P00519); assay: Inhibition of human recombinant non-phosphorylated ABL1 assessed as residual activity at 10 uM after 1 hr by qPCR analysis relative to control
[22] = target: Casein kinase I isoform delta (Homo sapiens) (UniProt P48730); assay: Inhibition of human recombinant CSNK1D assessed as residual activity at 10 uM after 1 hr by qPCR analysis relative to control
Sequence of Casein kinase I isoform delta (Homo sapiens) (P48730 whole entry, looked up, canonical isoform): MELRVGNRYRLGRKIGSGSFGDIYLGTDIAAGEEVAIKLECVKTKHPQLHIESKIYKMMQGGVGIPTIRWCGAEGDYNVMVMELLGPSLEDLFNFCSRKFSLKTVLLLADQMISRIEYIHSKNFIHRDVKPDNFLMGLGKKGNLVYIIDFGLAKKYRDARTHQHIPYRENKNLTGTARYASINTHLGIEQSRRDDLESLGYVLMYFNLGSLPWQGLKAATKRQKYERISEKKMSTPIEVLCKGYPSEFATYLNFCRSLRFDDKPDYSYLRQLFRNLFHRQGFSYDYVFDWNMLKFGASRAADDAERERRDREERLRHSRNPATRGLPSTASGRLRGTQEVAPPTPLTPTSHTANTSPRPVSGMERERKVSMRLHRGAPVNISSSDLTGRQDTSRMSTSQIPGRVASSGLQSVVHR

[23] = target: Angiopoietin-1 receptor (Homo sapiens) (UniProt Q02763); assay: Inhibition of human recombinant TIE2 assessed as residual activity at 10 uM after 1 hr by qPCR analysis relative to control
Mus musculus = assay: Toxicity in athymic nude/beige mouse xenografted with human 786-O cells assessed as mild spasm at 0.16 mg/kg, ip qd after 24 days; type: organism-based, 786-0; settings: in vivo, 576 h
[24] = target: Serine/threonine-protein kinase PAK 2 (Homo sapiens) (UniProt Q13177); assay: Inhibition of human recombinant PAK2 assessed as residual activity at 10 uM after 1 hr by qPCR analysis relative to control
[25] = target: Ribosomal protein S6 kinase alpha-3 (Homo sapiens) (UniProt P51812); assay: Inhibition of human recombinant N-terminal RSK2 kinase domain 1 assessed as residual activity at 10 uM after 1 hr by qPCR analysis relative to control
[26] = target: Testis-specific serine/threonine-protein kinase 1 (Homo sapiens) (UniProt Q9BXA7); assay: Inhibition of human recombinant TSSK1B assessed as residual activity at 10 uM after 1 hr by qPCR analysis relative to control
[27] = target: SRSF protein kinase 3 (Homo sapiens) (UniProt Q9UPE1); assay: Inhibition of human recombinant SRPK3 assessed as residual activity at 10 uM after 1 hr by qPCR analysis relative to control
[28] = target: Serine/threonine-protein kinase RIO2 (Homo sapiens) (UniProt Q9BVS4); assay: Inhibition of human recombinant RIOK2 assessed as residual activity at 10 uM after 1 hr by qPCR analysis relative to control
[29] = target: Phosphatidylinositol 4,5-bisphosphate 3-kinase catalytic subunit alpha isoform (Homo sapiens) (UniProt P42336); assay: Inhibition of human recombinant PIK3CA assessed as residual activity at 10 uM after 1 hr by qPCR analysis relative to control
Sequence of Phosphatidylinositol 4,5-bisphosphate 3-kinase catalytic subunit alpha isoform (Homo sapiens) (P42336 whole entry, canonical isoform): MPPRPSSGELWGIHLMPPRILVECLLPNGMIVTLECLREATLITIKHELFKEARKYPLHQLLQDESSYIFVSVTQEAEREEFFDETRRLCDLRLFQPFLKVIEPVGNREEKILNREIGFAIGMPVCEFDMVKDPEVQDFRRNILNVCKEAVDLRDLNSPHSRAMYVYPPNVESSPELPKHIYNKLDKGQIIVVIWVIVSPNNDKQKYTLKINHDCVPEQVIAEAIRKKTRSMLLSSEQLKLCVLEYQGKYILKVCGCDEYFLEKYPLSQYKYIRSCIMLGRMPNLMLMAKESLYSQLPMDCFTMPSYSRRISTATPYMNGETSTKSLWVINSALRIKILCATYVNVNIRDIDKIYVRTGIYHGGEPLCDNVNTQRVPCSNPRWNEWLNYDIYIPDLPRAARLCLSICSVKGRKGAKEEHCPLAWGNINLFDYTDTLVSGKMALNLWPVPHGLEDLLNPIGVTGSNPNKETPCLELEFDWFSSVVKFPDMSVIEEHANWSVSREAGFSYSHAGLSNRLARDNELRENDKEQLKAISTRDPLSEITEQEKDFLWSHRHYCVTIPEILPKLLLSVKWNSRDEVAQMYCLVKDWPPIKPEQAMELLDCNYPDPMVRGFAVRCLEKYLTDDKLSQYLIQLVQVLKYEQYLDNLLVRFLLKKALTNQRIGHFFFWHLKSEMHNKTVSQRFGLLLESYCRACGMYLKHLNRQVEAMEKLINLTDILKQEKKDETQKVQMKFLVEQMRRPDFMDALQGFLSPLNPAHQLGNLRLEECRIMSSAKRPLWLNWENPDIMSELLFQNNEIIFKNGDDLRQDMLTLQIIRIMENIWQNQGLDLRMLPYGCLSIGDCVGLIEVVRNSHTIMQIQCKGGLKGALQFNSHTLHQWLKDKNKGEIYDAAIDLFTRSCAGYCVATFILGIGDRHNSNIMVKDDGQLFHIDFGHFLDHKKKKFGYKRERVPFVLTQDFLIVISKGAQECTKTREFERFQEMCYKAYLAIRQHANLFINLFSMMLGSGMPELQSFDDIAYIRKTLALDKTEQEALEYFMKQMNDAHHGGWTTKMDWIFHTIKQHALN

Sequence of Mitogen-activated protein kinase 10 (Homo sapiens) (P53779 whole entry): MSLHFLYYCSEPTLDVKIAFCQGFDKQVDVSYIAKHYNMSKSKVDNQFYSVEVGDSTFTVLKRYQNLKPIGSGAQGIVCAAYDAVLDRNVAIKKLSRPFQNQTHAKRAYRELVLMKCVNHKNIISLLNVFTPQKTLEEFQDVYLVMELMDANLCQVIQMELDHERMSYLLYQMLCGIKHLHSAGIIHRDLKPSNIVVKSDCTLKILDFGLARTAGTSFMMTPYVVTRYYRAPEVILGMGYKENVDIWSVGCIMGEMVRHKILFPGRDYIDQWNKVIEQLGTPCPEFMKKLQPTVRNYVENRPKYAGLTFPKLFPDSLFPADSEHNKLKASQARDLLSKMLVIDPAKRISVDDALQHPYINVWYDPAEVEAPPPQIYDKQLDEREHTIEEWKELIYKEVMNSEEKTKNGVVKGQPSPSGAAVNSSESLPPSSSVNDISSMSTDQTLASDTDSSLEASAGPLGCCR

`Cc1c(Cl)cccc1NC(=O)c1sc2nc3c(cc2c1N)C(=O)CC3` was tested, and the Activity [1] was 95%, the Activity [2] was 100% and the Activity [3] was 73%. The Activity [4] was 100%, the Activity [5] was 100% and the Activity [6] was 100%. The Activity [7] was 72%, the Activity [8] was 100% and the pIC50 [9] was 5.66. It also gave an Activity [10] of 93%, an Activity [11] of 100% and an Activity [12] of 98%. For the same compound, the Activity [13] was 90%, the Activity [14] was 92% and the Activity [15] was 100%. For the same compound, the Activity [16] was 92%, the Activity [17] was 57% and the Activity [18] was 100%. The Activity [19] was 100%, the Activity [20] was 100% and the Activity [21] was 98%. For the same compound, the Activity [22] was 100%, the Activity [23] was 100% and the Activity (Mus musculus) was “Toxic”. For the same compound, the Activity [24] was 95%, the Activity [25] was 94% and the Activity [26] was 65%. For the same compound, the Activity [27] was 100%, the Activity [28] was 43% and the Activity [29] was 100%.
